Test results reported in patent US8299049B2, “Compositions comprising an extract of Tiarella polyphylla or compounds isolated therefrom for preventing and treating cancer diseases” (Korea Institute of Bioscience and Biotechnology, priority 2007, dated 2012).

Legend:
Assay type in all cases: cell-based
[1] = system: TM4SF5-expressing SNU449Tp cells; assay: Inhibitory effect on growth of TM4SF5-expressing cell
Procedure: (§1) After virus infection, pooled stable clones (control SNU449Cp and TM4SF5-expressing SNU449Tp cell clones) and single cell-driven stable clones (TM4SF5-expressing SNU449T16) were prepared by infecting SNU449 hepatocytes (Korean Cell Bank, Seoul, Korea) with retrovirus for empty pLNCX or pLNCX with TM4SF5. Parental and control cells (Cp) were maintained in RPMI-1640/10% FBS/0.25 μg/ml gentamycin (Calbiochem, San Diego, Calif.) without or with 200 μg/ml G418 (A.G. Scientific Inc., San Diego, Calif.), respectively, at 37° C. and 5% CO2. Cells endogenously expressing TM4SF5 or cells endogenously expressing no TM4SF5 (Korean Cell Bank) were maintained in either DMEM-H or RPMI-1640 media with 10% FBS (JBI Inc., Daegu, Korea).

[2] = system: TM4SF5 null SNU449Cp cells; assay: Inhibitory effect on cell growth, TM4SF5-null control cells; details: 20 μM, 3 days
Procedure: as §1

[3] = system: TM4SF5; assay: Effect of TA treatment on TM4SF5 expression of P, Cp, Tp and T16 cells
[4] = system: TM4SF5-null cells including Hek293 and COST fibroblast, MDA-MB-453 breast, SNU638 and SNU668 stomach, and SNU398 liver epithelial cells; assay: Cell number of diverse cell lines without TM4SF5 after TA treatment; details: TA 5 or 20 μM
Procedure: as §1
(§2) Next, to confirm that tiarellic acid (TA) is specific to TM4SF5, cytotoxicity of tiarellic acid (TA) was examined using cells with endogenous TM4SF5 expression. RT-PCR was performed using a primer set described in the following Table 1 under the conditions including 30 cycles of 94° C. for 30 sec, 55° C. for 30 sec, and 72° C. for 30 sec. Diverse cell lines were treated with tiarellic acid (TA) at a concentration of 5 or 20 μM.

[5] = system: cells with endogenous TM4SF5 expression; assay: Cell number of cell lines with endogenous TM4SF5 expression after TA treatment; details: TA 5 or 20 μM
Procedure: as §1, §2

[6] = system: focal adhesion kinase (FAK), paxillin, p130Cas in TM4SF5-expressing SNU449T16 cells; assay: Immunoblot of focal adhesion molecule expression and activation, SNU449T16
Procedure: (§3) Whole cell lysates from cells under diverse experimental conditions were prepared, as described in the literature (Lee, S. Y. et al., Focal adhesion and actin organization by a cross-talk of TM4SF5 with integrin α2 are regulated by serum treatment, Exp Cell Res, 312, pp. 2983-99, 2006). For example, cells were subjected to electroporation (950 μF, 250 V) with a control GFP, wild-type focal adhesion kinase (FAK), paxillin, p130Cas cDNA. One day after electroporation, cells were treated with TA (20 μM) for the indicated periods. Cells cultured normally or treated with TA at different concentrations for the indicated periods were harvested using RIPA buffer. Control or tumor tissues from nude mice were frozen immediately after surgery using liquid N2. Tissues in the liquid N2 was homogenized using a mortar and pestle, and extracted using 0.1% SDS containing RIPA buffer. Standard Western blots of lysates were performed by using antibody against phospho-Y^397, Y^407, Y^577, Y^861, Y^925 FAK (BioSource International, Inc., Camarillo, Calif.), phospho-Y^416Src, c-Src, p15^INK4B, p16^INK4A (Santa Cruz Biotech., Santa Cruz, Calif.), FAK, p130Cas, paxillin, pY^118paxillin, active caspase-3 (BD Transduct. Lab., San Jose, Calif.), α-tubulin (Sigma, St Louis, Mo.), phopsho-S^473, or T^308Akt, Akt, phospho-Erk1/2, Erk1/2 (Cell Signaling Tech., Danvers, Mass.), and TM4SF5 (homemade).
To examine which signaling molecule is affected by tiarellic acid (TA), the following procedure was performed, as described in the literature (Lee, S. Y. et al., Focal adhesion and actin organization by a cross-talk of TM4SF5 with integrin α2 are regulated by serum treatment, Exp Cell Res, 312, pp. 2983-99, 2006).
The SNU449 cell lines were treated with tiarellic acid (TA) in a dose- (0, 1, 5, 20 μM) and time-dependent (0, 8, 16, 24, 36 hrs) manner.
The SNU449Cp and SNU449T16 cell lines were treated with tiarellic acid (TA) at varying concentrations (0, 1, 5, 20 μM) for 24 hrs, and then immunoblot assay was performed.

[7] = system: focal adhesion molecules in SNU449Cp cells expressing no TM4SF5; assay: Immunoblot of focal adhesion molecule expression and activation, SNU449Cp
Procedure: as §3, with “(homemade). […]” for “(homemade).”

[8] = system: focal adhesion molecules in TM4SF5-expressing SNU449Tp cell line; assay: Immunoblot of focal adhesion molecule expression and activation, SNU449Tp; details: FIG. 11
Procedure: as §3, with “(homemade). […]” for “(homemade).”

[9] = system: focal adhesion molecules in cells that express endogenous TM4SF5; assay: Focal adhesion molecule activation in cells endogenously expressing TM4SF5; details: FIG. 12
Procedure: as §3

[10] = system: focal adhesion molecules in cells lacking TM4SF5; assay: Focal adhesion molecule activation in TM4SF5-null cell lines; details: FIG. 12
Procedure: as §3

[11] = system: TM4SF5-expressing cells; assay: Immunofluorescence of focal adhesions and actin, TM4SF5-expressing cells
Procedure: Cells were treated with DMSO or 20 μM TA for 24 hrs. Then, the cells were plated on 10 μg/ml fibronectin-precoated coverslips and incubated for 2 hrs in the presence of DMSO or 20 μM TA. Subsequently, immunofluorescence staining was performed using pY^397 FAK, pY^118 paxillin, and actin, as described in the literature (Lee, S. Y. et al., Focal adhesion and actin organization by a cross-talk of TM4SF5 with integrin α2 are regulated by serum treatment, Exp Cell Res, 312, pp. 2983-99, 2006). Mounted samples were visualized by a fluorescent microscope (BX51, Olympus, Japan).

## C=C(C)C1CC[C@]2(C)CC[C@]3(C(=O)O)C(CCC4[C@@]5(C)CC[C@H](O)[C@@](C)(CO)C5CC[C@]43C)C12 (some centres unmarked) [tiarellic acid (TA), 3,23-dihydroxy-20(29)-lupen-27-oic acid]
[1]; FIG. 4, depending on concentration and time
  number of TM4SF5-expressing cells: decreased
[1]; SNU449Tp, 5 μM, 3 days
  inhibitory effect on cell growth: inhibitory effect was observed
[1]; SNU449Tp, 20 μM, 3 days
  cell density and cell shape: reduced cell density and round shaped cells were observed
[1]; TA 0, 0.1, 5, 20 μM
  inhibitory effect on the growth of TM4SF5-expressing cell: inhibitory effect
[2]
  inhibitory effect on cell growth: not observed
[3]
  expression level of TM4SF5: without affecting
[4]
  proliferation of TM4SF5-null cells: not affected
[5]
  growth of cells with endogenous TM4SF5 expression: growth suppression
[6]; FIG. 10, cell line not stated
  p130Cas phosphorylation and physical association among FAK, p130Cas, and paxillin: decreased
[6]; SNU449T16, 20 μM TA, 0, 8, 16, 24, 36 hrs
  FAK and paxillin phosphorylation and p130Cas protein levels over time: remarkably decreased in a time-dependent manner
[6]; SNU449T16, 20 μM TA, 24 hrs
  FAK and paxillin phosphorylations and p130Cas protein levels: reduced
[7]; FIG. 11
  pErk1/2: slightly increased
[7]; TA up to 20 μM, 24 hrs
  FAK and paxillin phosphorylations and p130Cas protein levels: no effect
[8]
  TM4SF5-dependent inhibitory effects on focal adhesion molecules: inhibitory effects
  pErk1/2: slightly increased
[9]
  inhibitory effects on focal adhesion molecule activation: observed
[10]
  inhibitory effects on focal adhesion molecule activation: not
[11]; 20 μM TA
  focal adhesions: lost
[11]; FIG. 13
  immunostaining for pY397FAK or pY118paxillin: disassembly of focal adhesion molecules was observed
[11]; FIG. 14
  association between integrin α5 and pY397FAK: dissociation
